Reference: patent US7122541B2, “Methods of inhibiting metastases” (Rhode Island Hospital, priority 2001, dated 2006)
“Also recorded” adds a separate entry of the source.

Tests used:
LS-180 cells [1] = assay: Crystal violet cell viability / adherent cell assay; assay type: cell-based, human
Method: (§1) Cell proliferation was assessed using a standard MTT (3,(4,5-dimethylthiazol-2yl)2,5-diphenyltetrazolium bromide; Sigma, St. Louis, Mo.) dye at 570 nm. Cells were into seeded in 96-well microtiter plates (2×10^5 cells/well) using 200 μl of medium. After a 12 hour incubation, Taurolidine was applied for a period of 6, 9, 12, 24 or 48 hours. At each time point 20 μl of MTT (5 mg/ml) was added and the cells were incubated at 37° C. for an additional 30 minutes. The medium was removed and the dye was eluted using acidic isopropyl alcohol (0.04N HCl). Cell viability was measured using crystal violet dye. Cells were seeded and treated with Taurolidine as described for the MTT assay. The medium was then removed and the cells were stained and fixed using a crystal violet staining solution containing 0.75% Crystal violet, 50% EtOH, 0.25% NaCl, and 1.75% formaldehyde for 10 minutes at room temperature. After staining and fixation the cells were rinsed with water and air-dried. The crystal violet dye was eluted using a 1% SDS in PBS solution and the absorbance was measured at 540 nm in a microtiter plate reader.
(§2) The human LS-180 colon cancer cell line was incubated with 25, 50, 75, and 100 μm concentrations of Taurolidine, and an MTT assay was performed at 6, 9, 12, 24 and 48 hours after Taurolidine administration. An accompanying crystal violet assay was performed under the same conditions. […] Flow cytometry was also performed using bromodeoxyuridine (BrdU) to help quantify the proportion of cells in S phase and evaluate cell proliferation.

caspase-3 = assay: Caspase-3 colorimetric assay (DEVD-pNA substrate); assay type: cell-based, human
Method: To measure caspase activity, cells were incubated in six-well Falcon plates (1×10^6 cells/well) and harvested by trypsinization. The cells were then pelleted and lysed as per the manufacturer's recommendation (MBL, Nagoya, Japan) and the cytosolic protein concentration was quantified using a BCA protein assay reagent (Pierce, Rockford, Ill.). The caspase-3 assay was performed in a 96-well microtiter plate using 100 μg of protein and 5 μl of 4 mM DEVD-pNA Substrate (CPP32/caspase-3 Colorimetric Protease Assay Kit; MBL, Nagoya, Japan). The protein and reagent were then incubated for 2 hours at 37° C. A background reading from cell lysates and buffer without DEVD-pNA substrate was subtracted from samples; the assay was performed in triplicate. Samples were read at 405 nm in a microtiter plate reader.
Caspase Inhibitor I (Z-VAD-fink; z-Val-Ala-Asp(OMe)-CH2F, Calbiochem; La Jolla, Calif.) was used from a 21 mM stock in DMSO stored at −20° C. until use and then diluted into tissue culture medium immediately prior to its application. After a 2-hour incubation with the caspase inhibitor, cells were treated with Taurolidine. […] Untreated cells received an equivalent dilution of DMSO.

LS-180 cells [2] = assay: MTT cell proliferation assay; assay type: cell-based, human
Method: as §1, §2

[3] = Lactate dehydrogenase (LDH) release cytotoxicity assay; assay type: cell-based, human; conditions: human, LS-180 cells
Method: (§3) Cytotoxicity was quantified using a standard lactate dehydrogenase cytotoxicity assay (Cytotoxicity Detection Kit, Roche). LS-180 cells (2.5×10^5 cell/well) were cultured in Falcon 96-well microtiter plates in a humidified incubator at 37° C., 5% CO2. […] Triton X-100 (1% final concentration) was used to lyse cells and determine the maximum release of LDH enzyme (high control). Cytotoxicity was determined as per the manufacturer's protocol, and the absorbance was measured at 490 nm in a microtiter plate reader.
(§4) Cytotoxicity was assessed by measuring lactate dehyhdrogenase (LDH) activity released from the cytosol of damaged cells. […] Taurolidine, even at a 400 μm concentration, produced minimal cytotoxic effects on LS-180 cells. […] This is in contradistinction to previously reported in vitro studies of Taurolidine on malignant cell lines.

LS-180 cells [4] = assay: as above; assay type: cell-based, human; conditions: 100, 200 and 400 μM, 24 hours
Method: as §3, §4

LS-180 cells [5] = assay: Flow cytometry (propidium iodide / BrdU) cell cycle and DNA content analysis; assay type: cell-based, human
Method: FIGS. 4A–D are histograms showing that Taurolidine induces apoptosis in human colon cancer cells. In FIGS. 4A–C, LS-180 cells were treated with 100, 200, and 400 μM concentrations of Taurolidine. After 24 hours the cells were harvested by trypsinization, labeled with propidium iodide, and their DNA content was measured by flow cytometry. The percentage of subdiploid DNA content, representing DNA degradation in apoptotic cells, is shown. […] LS-180 cells were treated with 100, 200, and 400 -μM concentrations of Taurolidine and harvested by trypsinization at 12, 24, and 36 hours. Caspase-3 activity was assessed by its ability to cleave the DEVD-pNA colorimetric substrate.
LS-180 cells were cultured in 100 mm Falcon plates (5×10^6 cells/plate) for 12 hours to become adherent. Cells were incubated for 12, 14 and 48 hours with complete medium (control) or 50, 100 and […] concentrations of Taurolidine. The cells were then treated with 10 μm bromodeoxyuridine (BrdU) for 30 minutes, and both floating and adherent cells were harvested for fixation in 70% ethanol. The DNA was denatured using 2N HCl and labeled with FITC-conjugated anti-BrdU antibody (anti-bromodeoxyuridine-fluorescein monoclonal antibody; Roche, Indianapolis, Ind.). Before analysis by flow cytometry the cells were treated with ribonuclease (Dnase-free ribonuclease, Roche, Indianapolis, Ind.) and propidium iodide (Sigma, St. Louis, Mo.). FACs analysis was performed on a FACscan flow cytometer (Becton Dickinson, N.J.).

LS-180 cells [6] = assay: Light microscopy / Hoechst 33258 staining for apoptotic morphology; assay type: cell-based, human; conditions: even at 400 μm; light microscopy or Hoechst 33258
[7] = tested on: LS-180 hepatic metastases; assay: Liver metastases model: splenic injection of LS-180 cells in nude mice, IP treatment; assay type: in vivo; conditions: for Serum CEA: mean ± SE, n = 20, after 3 weeks IP Taurolidine; for reduction in serum CEA levels vs control: 3 weeks IP therapy; for reduction in liver weight vs control: daily IP, 5 days/week, 3 weeks
Method: General anesthesia was induced using 400 μl choral hydrate (2%). Using sterile conditions, a vertical paramedian incision was used to expose the spleen. An intrasplenic injection of 1×10^5 tumor cells in 0.4 ml of serum free medium was performed, followed by splenectomy using hemoclips for vascular control. The incision was then closed using surgical staples. Beginning post injections days 2 or 5, mice received IP injections of 0.45% normal saline (n=10 per group) or Taurolidine (n=20 per group). Taurolidine (Boehringer Ingelheim, Germany) was given as a daily 0.5 ml IP injection of 2% solution ([…]) for 5 consecutive days per week for a total of 3 weeks. The day following the last treatment of Taurolidine or 0.45% NS, the mice were sacrificed and examined for gross tumor. Blood was drawn from the right ventricle, immediately centrifuged, and serum collected for CEA assays. The livers were weighed and fixed in HistoFix and representative sections taken for H&E microscopic examination. In addition, 9 mice (n=3 per group) were used to study the tumor model. At days 5, 10 and 15, mice that received a splenic tumor cell injection without any further intervention were sacrificed to assess tumor burden at varying time points. The livers were assessed for gross tumor and submitted in toto for histologic examination.

LS-180 cells [8] = assay: WST-8 tetrazolium cell number assay; conditions: dose-dependent; concentration not given
[9] = dose-dependent, concentration not given
[10] = treatment begun 2 days after splenic tumor injection
[11] = treatment begun 5 days after splenic tumor injection

z-Val-Ala-Asp(OMe)-CH2F [Z-VAD-fmk]
loss of cell adherence of Taurolidine-treated cells after caspase inhibition (crystal violet) (LS-180 cells [1]; 50-uM Z-VAD-fmk before Taurolidine): not affected
caspase-3 activity in Taurolidine-treated cells after caspase inhibition (caspase-3; 50 μM Z-VAD-fmk before 100, 200, 400 μM Taurolidine, vs untreated LS-180 cells): no significant increase in caspase-3 activity

O=S1(=O)CCN(CN2CCS(=O)(=O)NC2)CN1 [Taurolidine, bis(1,1-dioxoperhydro-1,2,4-thiadiazinyl-4)methane]
decrease by MTT assay (LS-180 cells [2]; 100 μm Taurolidine, present as early as 9 hours after exposure): 40–50%
reduction in cell number (MTT assay) (LS-180 cells [2]; 100 μm, after 24 hours): 40–50%
decrease in adherent tumor cells (MTT assay) (LS-180 cells [2]; [9]): 60%
cell adherence (crystal violet assay) (LS-180 cells [1]; 10-400 μM Taurolidine): loss of cell adherence
reduction in cell number (crystal violet assay) (LS-180 cells [1]; 100 μm, after 24 hours): 40–50%
decrease in adherent tumor cells (crystal violet assay) (LS-180 cells [1]; [9]): 60%
decrease in tumor cell viability (crystal violet assay) (LS-180 cells [1]; [9]): 85%
cytotoxicity ([3]; 50, 100 and 400 μm, 12 or 24 hours, read-out: percent cytotoxicity (LDH release), all cases): < 2%
cytotoxicity at 24 h, 50 µM ([3]; 50 μm, 24 hours, read-out: percent cytotoxicity (LDH release)): -0.07%
cytotoxicity at 24 h, 100 µM ([3]; 100 μm, 24 hours, read-out: percent cytotoxicity (LDH release)): 0.15%
cytotoxicity at 24 h, 400 µM ([3]; 400 μm, 24 hours, read-out: percent cytotoxicity (LDH release)): 1.58%
cytolysis (culture medium LDH activity) (LS-180 cells [4]): no significant cytolysis
sub-G1 peak by propidium iodide flow cytometry (LS-180 cells [5]; 50 and 100 μm, 24 hours): failed to demonstrate a sub-GI peak; also recorded: failed to demonstrate a sub-G1 peak
sub-diploid DNA peak (DNA degradation in apoptotic cells) (LS-180 cells [5]; 100, 200 and 400 μM, 24 hours): dose dependent increase
cell cycle progression / proliferation (flow cytometry, BrdU) (LS-180 cells [5]; treated vs untreated cells, 50 and 100 μm): no significant change in cell cycle progression; also recorded: no significant change in proliferation or cell cycle
caspase-3 activity (caspase-3; 100, 200 and 400 μM, 12, 24 and 36 hours): dose-dependent increase; also recorded: dose dependent increase
apoptotic morphology (LS-180 cells [6]): failed to demonstrate cell shrinkage, cytoplasmic condensation, nuclear fragmentation or blebbing
tolerability / deaths during therapy ([7]; 10-mg per day IP, five consecutive days x 3 weeks): well tolerated, resulting in no deaths of animals; also recorded: all mice tolerated the full 3-week course of treatment
Serum CEA ([7]; Day 2 group): 7.73 ± 0.52 ng/mL
Serum CEA ([7]; Day 5 group): 11.88 ± 1.97 ng/mL
gross hepatic tumor burden vs control ([7]; daily IP Taurolidine for 3 weeks, begun day 2 or 5): dramatic reduction in hepatic tumor involvement; also recorded: dramatic reduction of tumor burden; also recorded: striking decrease in tumor burden; also recorded: marked reduction in tumor burden; also recorded: marked decrease in tumor burden
reduction in serum CEA levels vs control [7, 10]: 69%
reduction in liver weight vs control [7, 10]: 18%
reduction in serum CEA levels vs control [7, 11]: 78%
reduction in liver weight vs control [7, 11]: 22%
decrease in tumor cell viability (WST-8 assay) (LS-180 cells [8]): 85%
